Reference: patent US6407204B1 (priority 1997, dated 2002)

Key:
Male Sprague-Dawley rats [1] = details: rat, in vivo
Male Sprague-Dawley rats [2] = details: rat, in vivo; remark: listed apart in the source

Substance | overt signs of toxicity (Male Sprague-Dawley rats [1]) | ED50 in phase II (Male Sprague-Dawley rats [2]) | analgesic doses in the formalin test (Male Sprague-Dawley rats [2]) | effect on phase I flinches (Male Sprague-Dawley rats [2]) | effect on phase II flinches (Male Sprague-Dawley rats [2]) | potency in phase II (tonic pain) versus phase I (acute pain) (Male Sprague-Dawley rats [2]) | rats showing signs of incoordination (Male Sprague-Dawley rats [1]) | dose required to induce analgesic effects in both acute and tonic pain portions (Male Sprague-Dawley rats [2]) | effect of the single agent alone (Male Sprague-Dawley rats [2])
Gly-Glu-Gla-Gla-Leu-Gln-Gla-Asn-Gln-Gla-Leu-Ile-Arg-Gla-Lys-Ser-Asn-NH2 [Conantokin G] | no overt signs of toxicity | 0.15 µg | 0.05 to 1 µg | without significantly decreasing | nearly abolished | very potent |  |  | 
Gly-Glu-Gla-Gla-Val-Ala-Lys-Met-Ala-Ala-Glu-Leu-Ala-Arg-Glu-Asn-Ile-Ala-Lys-Gly-Cys-Lys-Val-Asn-Cys-Tyr-Pro [Conantokin R] |  |  |  |  |  |  | One of six rats | more than 3.3 μg | no effect
